How the values were obtained:
[1] = test system: 5/6 nephrectomy rat model of CKD; assay: 5/6 nephrectomy rat model of CKD; assay type: in vivo; conditions: PD173074 1 mg/kg/day i.p. 14 days
Description: FGFR activity is required for the development of LVH in a rat model of CKD Since the cardiac effects of FGF23 are mediated by FGFR activation and could be blocked in vitro by the FGFR inhibitor PD173074, we tested the hypothesis that PD173074 could also attenuate LVH in the 5/6 nephrectomy rat model of CKD, which is known to develop increased FGF23 levels, severe hypertension, and LVH. We performed 5/6 nephrectomy in male Sprague Dawley rats using standard surgical techniques, and administered by intra-peritoneal injection either 1 mg/kg body weight/day of PD173074 dissolved in PBS (n=6) or vehicle alone (n=6) beginning one hour after surgery and continued daily for 14 days (FIG. 7). As a negative control, 6 rats underwent sham nephrectomy. At day 14 after surgery, we measured blood pressure, performed echocardiograms, collected blood for laboratory testing, sacrificed the animals and examined their hearts. […] Compared with vehicle, PD 173074 treatment led to decreased left ventricular mass, reduced ratio of heart weight to total body weight, decreased left ventricular wall thickness and relative wall thickness, decreased cross-sectional surface area of individual cardiac myocytes, and increased left ventricular end diastolic volume and ejection fraction (FIG. 7A-C). […]
Kidney disease was induced in Sprague Dawley rats using the 5/6 nephrectomy method (Di Marco et al., 2014). Rats were randomized to 3 groups of 6 animals each: sham nephrectomy, or 5/6 nephrectomy plus intra-peritoneal injections of vehicle (PBS) or anti-FGFR4 blocking antibody (human monoclonal, U3-11; U3Pharma) at 25 mg/kg/day every 3 days beginning one hour after surgery. High-resolution echocardiography (15 MHz) was performed at 14 days after surgery to assess LV mass, wall and chamber dimensions, and systolic and diastolic function using an HDI 5000 Ultrasound system (Philips, Best, The Netherlands). M-mode, 2D and 3D recordings were obtained under general anesthesia delivered through a nose mask while heart rate and body temperature were maintained. Blood pressure was measured in conscious rats using a computerized rat-tail cuff technique (CODA, Kent Scientific Corporation). On day 14, animals were sacrificed and the hearts were isolated and prepared for histological and serological analyses.
Short-axis heart sections were stained with hematoxylin and eosin (VWR) and used to quantify myocardial thickness by measuring the distance from the inner to the outer myocardial edges at the mid-chamber zone. Mean left ventricular free wall thickness was calculated from seven measurements of wall thickness taken at 0, 30, 60, 90, 120, 150 and 180 degrees along the hemi-circle of the short axis of the free wall. Images were taken on a Nikon SMZ 1500 microscope using 0.75× magnification.
We measured cross-sectional area of individual cardiac myocytes in paraffin-embedded short-axis sections of mouse and rat hearts. Briefly, 7 μm thick sections were deparaffinized according to our established protocols (Faul et al., 2011). To visualize cellular borders, fixed tissue was incubated with wheat germ agglutinin (WGA) conjugated to Alexa Fluor555 (Invitrogen) at 1 mg/ml in PBS containing 10 mM sodium azide. Immunofluorescence images were taken on a Leica TCS-SP5 confocal microscope with a 63× oil objective. Leica AF6000 fluorescence software was used to quantify cross-sectional area of 25 cells per field at four fields along the mid-chamber free wall based on WGA-positive staining.
Short-axis cardiac sections from mice and rats were stained with Picrosirius Red (Sigma-Aldrich) and used to quantify myocardial fibrosis. Sections were deparaffinized, counterstained with hematoxylin (VWR) and incubated in Picrosirius Red solution for 60 minutes. After washing in acidified water, sections were dehydrated in ascending ethanol series and mounted in non-aqueous mounting media. […]

[2] = Pharmacokinetic study of FGF23 in rats; assay type: in vivo, rat
Description: High systemic levels of FGF23 results in left ventricular hypertrophy in mice. […] Therefore, we administered FGF23 intravenously to determine if systemically elevated FGF23 levels could also induce LVH. We injected 40 μg/kg of recombinant FGF23 dissolved in 200 μl of PBS into the tail vein of adult wild type mice twice daily for 5 days with eight hours between daily doses. The dose of FGF23 was chosen based on published reports in which a similar dose stimulated ERK phosphorylation and increased Egr-1 expression (Urakawa et al., Nature, 444(7120):770-774, […]). The frequency of injections was chosen based on a pharmacokinetic study of adult wild type rats in which we injected a single dose of 40 μg/kg of FGF23. […] Thus, we estimated that two daily injections of 40 μg/kg would provide elevated FGF23 levels for at least 8 hours per day in mice. Control animals underwent the same injection schedule using 200 μl of PBS alone. On the morning of day 6, blood was collected for assay of FGF23, mice were sacrificed and the hearts examined.

HEK293 cells = assay: FGF-FGFR-dependent signaling in HEK293 cells (Western blot, immunoprecipitation); assay type: cell-based; conditions: HEK293 expressing wild-type FGFR4, within 6 hours

Molecule: CCN(CC)CCCCNc1ncc2cc(-c3cc(OC)cc(OC)c3)c(NC(=O)NC(C)(C)C)nc2n1 [PD173074]
- 5/6 nephrectomy-induced increased cardiac β-MHC and ANP and decreased MCAD mRNA [1]: not observed
- blood pressure vs vehicle [1]: no difference was detected
- renal function and serum FGF23 levels vs vehicle [1]: no differences
- LVH ([1]; vs vehicle): significantly attenuated
- cross-sectional surface area of individual cardiac myocytes ([1]; vs vehicle): decreased
- left ventricular end diastolic volume and ejection fraction ([1]; vs vehicle): increased
- left ventricular mass ([1]; vs vehicle): decreased
- left ventricular wall thickness and relative wall thickness ([1]; vs vehicle): decreased
- ratio of heart weight to total body weight ([1]; vs vehicle): reduced
- hepatic expression of p-ERK protein levels ([1]; vs sham and 5/6 nephrectomized rats): decreased

B1: FGF23: recombinant mouse FGF23, 6His-tagged Tyr25-Val251 (Arg179Gln) (R&D Systems) (protein)
chain: YPDTSPLLGSNWGSLTHLYTATARTSYHLQIHRDGHVDGTPHQTIYSALMITSEDAGSVVITGAMTRRFLCMDLHGNIFGSLHFSPENCKFRQWTLENGYDVYLSQKHHYLVSLGRAKRIFQPGTNPPPFSQFLARRNEVPLLHFYTVRPRRHTQSAEDPPERDPLNVLKPRPRATPVPVSCSRELPSAEEGGPAASDPLGVLRRGRGDARGGAGGADRCRPFPRFV
modifications: left off: small tags and cut ends
- half-life of circulating FGF23 ([2]; adult wild type rats, single dose of 40 μg/kg): 30 min
- plasma levels ([2]; rats, single dose 40 μg/kg, four hours post injection): remained elevated above baseline
- RCAN1-4 levels (HEK293 cells): increases

Source: patent US20160039936A1, “FIBROBLAST GROWTH FACTOR RECEPTOR INHIBITION FOR THE TREATMENT OF DISEASE” (UNIVERSITY OF MIAMI, priority 2011, published 2016)
